Test results published in patent US7592352B2, “Substituted thieno and furo-pyridines” (SmithKline Beecham Corporation, priority 2003, dated 2009).

Experiments:
Assay type in all cases: biochemical
Src = target: T1, Src (Homo sapiens, UniProt P12931); assay: Src enzyme assay (HTRF); conditions: N-85 Src, 10 μM ATP, pIC50 = -log10(IC50) in Molar
T1 construct: precede the first globular domain (amino acids 86-536, BR# 455)
Excerpt: The Src enzyme assay used Homogeneous Time Resolved Fluorescence (HTRF) assay technology to measure the enzyme activity. HTRF is based on fluorescence resonance energy transfer between a Europium-labeled phospho-tyrosine antibody (donor) and Allophycocyanin (APC) conjugated to streptavidin (acceptor). This method measured the ability of the purified enzymes to catalyze the transfer of the γ-phosphate from ATP onto tyrosine residues in a biotinylated synthetic peptide. The peptide used for the Src enzyme activity assay was biotin-(6-amino caproic acid)-AAAQQIYGQI-NH2. The enzyme used was baculovirus expressed N-85 Src with the deletion of first 85 amino acids, which precede the first globular domain (amino acids 86-536, BR# 455).
To preactivate enzyme, 180 μM N-85 Src was incubated with 5 mM ATP and 50 mM MgCl2 for 40 min on ice. The preactivated enzyme (0.4 nM final concentration) was then incubated for 30 min at room temperature in either 96-well or 384-well plates containing 200 nM peptide, 10 μM ATP, 0.05 mg/ml MgCl2, and test compound in 0.1 M HEPES pH 7.5. Each reaction was first stopped by the addition of 45 mM EDTA in 0.1 M HEPES pH7.5, then, HTRF reagent was added to measure the signal. After 10 min incubation at room temperature, the plates were read at 665 nm on a Wallac Victor reader with a time delay. The percent inhibition of activity was calculated relative to positive (C1) and negative (C2, EDTA added) control wells using, 100*(1−(U1−C2)/(C1−C2)). The concentration of test compound yielding 50% inhibition was determined using the equation, y=((Vmax*x)/(K+x))+Y2, where “K” was equal to the IC50. The IC50 values were converted to pIC50 values, i.e., −log IC50 in Molar concentration.

human TIE2 = target: T2, human TIE2 (Homo sapiens, UniProt Q02763); assay: TIE-2 enzyme assay (LANCE method); conditions: GST-TIE2, 80 uM ATP, pIC50 = -log10(IC50) in Molar
T2 construct: made in house
Excerpt: The TIE-2 enzyme assay used the LANCE method (Wallac) and GST-TIE2, baculovirus expressed recombinant constructs of the intracellular domains of human TIE2 (amino acids 762-1104, GenBank Accession # L06139) tagged by GST). The method measured the ability of the purified enzymes to catalyse the transfer of the γ-phosphate from ATP onto tyrosine residues in a biotinylated synthetic peptide, D1-15 (biotin-C6-LEARLVAYEGWVAGKKKamide). This peptide phosphorylation was detected using the following procedure: for enzyme preactivation, GST-TIE2 was incubated for 30 mins at room temperature with 2 mM ATP, 5 mM MgCl2 and 12.5 mM DTT in 22.5 mM HEPES buffer (pH7.4). Preactivated GST-TIE2 was incubated for 30 mins at room temperature in 96 well plates with 1 uM D1-15 peptide, 80 uM ATP, 10 mM MgCl2, 0.1 mg/ml BSA and the test compound (diluted from a 10 mM stock in DMSO, final DMSO concentration was 2.4%) In 1 mM HEPES (pH7.4). The reaction was stopped by the addition of EDTA (final concentration 45 mM). Streptavidin linked-APC (allophycocyanin, Molecular Probe) and Europium-labeled anti-phosphorylated tyrosine antibody (Wallac) were then added at the final concentration of 17 ug/well and 2.1 ug/well, respectively. The APC signal was measured using an ARVO multilabel counter. (Wallac Berthold Japan). The percent inhibition of activity was calculated relative to blank control wells. The concentration of test compound that inhibits 50% of activity (IC50) was interpolated using nonlinear regression (Levernberg-Marquardt) and the equation, y=Vmax (1−x/(K+x))+Y2, where “K” was equal to the IC50. The IC50 values were converted to pIC50 values, i.e., −log IC50 in Molar concentration.

human EphB4 = target: T3, human EphB4 (Homo sapiens, UniProt P54760); assay: EphB4 enzyme assay (Scintillation Proximity Assay); conditions: GST-EphB4, 1 uM ATP, SPA; pIC50 = -log10(IC50) in Molar
T3 construct: human EphB4 (amino acids 600-914, BR # 21454)
T3 sequence (P54760 600-914): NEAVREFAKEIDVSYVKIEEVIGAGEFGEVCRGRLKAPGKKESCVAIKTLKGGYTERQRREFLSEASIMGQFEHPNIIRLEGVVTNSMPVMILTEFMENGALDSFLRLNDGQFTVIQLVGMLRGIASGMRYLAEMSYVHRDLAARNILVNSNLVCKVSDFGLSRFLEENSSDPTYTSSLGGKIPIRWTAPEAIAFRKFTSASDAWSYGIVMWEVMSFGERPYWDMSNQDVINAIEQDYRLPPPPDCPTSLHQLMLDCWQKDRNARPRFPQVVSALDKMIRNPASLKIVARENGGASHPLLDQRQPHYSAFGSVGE
Experimental: The EphB4 enzyme assay used Scintillation Proximity Assay technology to measure enzyme activity. This method measured the ability of the purified enzymes to catalyse the transfer of the γ-phosphate from ATP onto tyrosine residues in a biotinylated synthetic peptide. […] Each reaction was stopped by the addition of 0.1 mg Streptavidin SPA beads in 100 mM EDTA/1×PBS, pH 7.2. The signal was measured using a Wallac Trilux scintillation counter (Wallac). The percent inhibition of activity was calculated relative to positive (C1) and negative (C2) control wells using, 100*(1−(U1−C2)/(C1−C2)). The concentration of test compound was determined using the equation, y=((Vmax*x)/(K+x))+Y2, where “K” was equal to the IC50. The IC50 values were converted to pIC50 values, i.e., −log IC50 in Molar concentration.

VEGFR-2 = target: T4, VEGFR-2 (Homo sapiens, UniProt P35968); assay: VEGFR-2 enzyme assay (LANCE method); conditions: GST-VEGFR2, 75 uM ATP, pIC50 = -log10(IC50) in Molar
T4 construct: GST-VEGFR2, baculovirus expressed recombinant constructs of the intracellular domains; made in house
Experimental: The VEGF enzyme assay used the LANCE method (Wallac) and GST-VEGFR2, baculovirus expressed recombinant constructs of the intracellular domains of human […] tagged by GST. […] The reaction was stopped by the addition of EDTA (final concentration 50 mM). […] The APC signal was measured using an ARVO multilabel counter (Wallac Berthold, Japan). The percent inhibition of activity was calculated relative to blank control wells. […] The IC50 values were converted to pIC50 values, i.e., −log IC50 in Molar concentration.

T2 sequence (Q02763 762-1104): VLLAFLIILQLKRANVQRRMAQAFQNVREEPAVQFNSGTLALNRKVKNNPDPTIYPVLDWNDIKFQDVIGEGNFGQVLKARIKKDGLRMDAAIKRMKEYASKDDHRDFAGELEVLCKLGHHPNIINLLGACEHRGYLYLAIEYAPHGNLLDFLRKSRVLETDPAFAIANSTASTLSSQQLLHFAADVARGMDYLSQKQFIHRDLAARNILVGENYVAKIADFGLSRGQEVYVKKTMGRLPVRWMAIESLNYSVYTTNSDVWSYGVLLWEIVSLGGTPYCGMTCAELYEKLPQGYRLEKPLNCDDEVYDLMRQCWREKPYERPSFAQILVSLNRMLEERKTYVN
T1 sequence (P12931 86-536): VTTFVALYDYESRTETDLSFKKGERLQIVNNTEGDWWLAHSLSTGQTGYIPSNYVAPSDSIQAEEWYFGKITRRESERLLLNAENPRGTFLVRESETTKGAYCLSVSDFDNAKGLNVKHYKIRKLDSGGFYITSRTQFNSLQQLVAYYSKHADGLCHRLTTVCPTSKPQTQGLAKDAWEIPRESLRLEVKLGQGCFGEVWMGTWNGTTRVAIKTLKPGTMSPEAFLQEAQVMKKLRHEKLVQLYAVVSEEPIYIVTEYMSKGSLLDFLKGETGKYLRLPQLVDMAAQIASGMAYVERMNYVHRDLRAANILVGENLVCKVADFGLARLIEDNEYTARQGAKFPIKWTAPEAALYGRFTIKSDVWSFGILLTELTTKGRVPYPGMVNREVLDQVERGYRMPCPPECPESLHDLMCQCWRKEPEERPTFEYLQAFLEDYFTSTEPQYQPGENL
T4 sequence (P35968 786-1356 limits assumed): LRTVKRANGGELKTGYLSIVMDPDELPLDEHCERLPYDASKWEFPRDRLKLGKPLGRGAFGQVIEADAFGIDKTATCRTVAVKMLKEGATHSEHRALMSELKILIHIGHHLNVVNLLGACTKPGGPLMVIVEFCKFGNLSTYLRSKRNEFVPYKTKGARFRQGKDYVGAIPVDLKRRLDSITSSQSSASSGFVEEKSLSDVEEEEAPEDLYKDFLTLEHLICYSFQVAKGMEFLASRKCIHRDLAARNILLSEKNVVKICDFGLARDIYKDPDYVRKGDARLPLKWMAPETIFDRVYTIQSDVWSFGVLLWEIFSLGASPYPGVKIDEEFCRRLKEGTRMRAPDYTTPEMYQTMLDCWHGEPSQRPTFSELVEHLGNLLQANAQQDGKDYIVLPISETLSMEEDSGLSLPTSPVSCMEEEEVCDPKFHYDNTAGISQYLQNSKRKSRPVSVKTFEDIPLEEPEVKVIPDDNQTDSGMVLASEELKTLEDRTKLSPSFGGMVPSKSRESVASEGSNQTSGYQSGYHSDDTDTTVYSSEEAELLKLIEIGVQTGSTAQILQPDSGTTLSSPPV

Row | IC50 (Src) | IC50 (human TIE2) | IC50 (human EphB4) | IC50 (VEGFR-2) | Compound
1 | 10.2 to 100 nM |  |  |  | Nc1ncc(-c2cccc(Cl)c2)c2occ(-c3ccc(NC(=O)Nc4cc(C(F)(F)F)ccc4F)cc3)c12 [Ia]
2 |  | 102 to 1000 nM |  |  | COc1cc(-c2cnc(N)c3c(-c4ccc5[nH]ccc5c4)csc23)cc(OC)c1OC [Iaa, 4-Amino-3 (1H-Indol-5-yl)-7-(3,4,5-trimethoxyphenyl)-thieno[3,2-c]pyridine]
3 | 102 to 1000 nM | 10.2 to 100 nM | 3.24 to 31.6 nM | 3.24 to 31.6 nM | Nc1nccc2occ(-c3ccc(NC(=O)Nc4cc(C(F)(F)F)ccc4F)cc3)c12 [Ib]
4 | 1 to 10 nM | 1 to 10 nM | 0.316 to 3.16 nM |  | Nc1ncc(-c2cccc(S(N)(=O)=O)c2)c2occ(-c3ccc(NC(=O)Nc4cc(C(F)(F)F)ccc4F)cc3)c12 [Id]
5 |  |  |  | 0.316 to 3.16 nM | Nc1ncc(-c2cccnc2)c2occ(-c3ccc(NC(=O)Nc4cc(C(F)(F)F)ccc4F)cc3)c12 [Ie]
